According to ChEMBL document CHEMBL1201862, “PubChem BioAssay data set” (2004):
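In this assay, cells in 96-well plates receive the compound at five concentrations for 48 hours. Endpoints are linearly interpolated between the surrounding concentrations. Here, GI50 denotes the concentration required for 50% inhibition of growth.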 Calls of active or inactive are those of the source. No stated cut-off is given here; in the data, active = GI50 up to about 1.1 µM and inactive = higher.

Key:
Experiment in all cases: NCI-60 cell line screen, 48 h
SF-295 = system: SF-295
NCI-H460 = system: NCI-H460
OVCAR-8 = system: OVCAR-8
M14 = system: M14
SK-OV-3 = system: SK-OV-3
DU-145 = system: DU-145
COLO 205 = system: COLO 205
ACHN = system: ACHN
T47D = system: T47D
CAKI-1 = system: CAKI-1
NCI/ADR-RES = system: NCI/ADR-RES
OVCAR-5 = system: OVCAR-5
MCF7 = system: MCF7
UACC-257 = system: UACC-257
KM12 = system: KM12
A498 = system: A498
SN12C = system: SN12C
LOX IMVI = system: LOX IMVI
EKVX = system: EKVX
NCI-H226 = system: NCI-H226

Row | Compound | GI50 (SF-295) | GI50 (NCI-H460) | GI50 (OVCAR-8) | GI50 (M14) | GI50 (SK-OV-3) | GI50 (DU-145) | GI50 (COLO 205) | GI50 (ACHN) | GI50 (T47D) | GI50 (CAKI-1) | GI50 (NCI/ADR-RES) | GI50 (OVCAR-5) | GI50 (MCF7) | GI50 (UACC-257) | GI50 (KM12) | GI50 (A498) | GI50 (SN12C) | GI50 (LOX IMVI) | GI50 (EKVX) | GI50 (NCI-H226)
1 | CC(C)(C)O/N=C/c1cc(NC(=S)c2ccccc2)ccc1Cl | 18 µM (inactive) | 6.89 µM (inactive) | 17.9 µM (inactive) | 18.6 µM (inactive) | 29.4 µM (inactive) | 17.3 µM (inactive) | 14.3 µM (inactive) | 16.4 µM (inactive) | 18.9 µM (inactive) | 29.3 µM (inactive) | 15.6 µM (inactive) | 23.8 µM (inactive) | 22.9 µM (inactive) | 13.1 µM (inactive) | 12.7 µM (inactive) | 13.6 µM (inactive) | 12.2 µM (inactive) | 15.7 µM (inactive) | 15.2 µM (inactive) | 16.8 µM (inactive)
2 | CCCc1cc(COC)c(C#N)c(O)n1 | > 100 µM (inactive) | > 100 µM (inactive) | > 100 µM (inactive) | > 100 µM (inactive) | > 100 µM (inactive) | > 100 µM (inactive) | > 100 µM (inactive) | > 100 µM (inactive) | > 100 µM (inactive) | > 100 µM (inactive) | > 100 µM (inactive) | > 100 µM (inactive) | > 100 µM (inactive) | > 100 µM (inactive) | > 100 µM (inactive) | > 100 µM (inactive) | > 100 µM (inactive) | > 100 µM (inactive) | > 100 µM (inactive) | 17.5 µM (inactive)
3 | CSC1(SC)CCCCCCCCCCC1 | 37.3 µM (inactive) | 29.8 µM (inactive) | 45.5 µM (inactive) | 47.5 µM (inactive) | 83.9 µM (inactive) | 55.3 µM (inactive) | 19.2 µM (inactive) | 34.2 µM (inactive) | 25 µM (inactive) | 58.1 µM (inactive) | 41.2 µM (inactive) | 53.2 µM (inactive) | 21.3 µM (inactive) | 27.5 µM (inactive) | 41.7 µM (inactive) | > 100 µM (inactive) | 70 µM (inactive) | 18.7 µM (inactive) | 39 µM (inactive) | > 100 µM (inactive)
4 | Cc1coc2c1C(OC(=O)C(C)C)C1(C)C(C)CCC(O)C1C2=O (stereo not given) | > 100 µM (inactive) | > 100 µM (inactive) | > 100 µM (inactive) | > 100 µM (inactive) | > 100 µM (inactive) | > 100 µM (inactive) | 97.7 µM (inactive) | > 100 µM (inactive) | > 100 µM (inactive) | > 100 µM (inactive) | > 100 µM (inactive) | > 100 µM (inactive) | 98.2 µM (inactive) | > 100 µM (inactive) | > 100 µM (inactive) | > 100 µM (inactive) | > 100 µM (inactive) | > 100 µM (inactive) | > 100 µM (inactive) | > 100 µM (inactive)
5 | CCOC(=O)N1CC2(C)C=CC1C(C(=O)OC)C2 (stereo not given) | > 100 µM (inactive) | > 100 µM (inactive) | > 100 µM (inactive) | > 100 µM (inactive) | > 100 µM (inactive) | > 100 µM (inactive) | > 100 µM (inactive) | > 100 µM (inactive) | > 100 µM (inactive) | > 100 µM (inactive) | > 100 µM (inactive) | > 100 µM (inactive) | > 100 µM (inactive) | > 100 µM (inactive) | > 100 µM (inactive) | > 100 µM (inactive) | > 100 µM (inactive) | > 100 µM (inactive) | > 100 µM (inactive) | 69.8 µM (inactive)
6 | COc1ccc(CCNC2=CC(=O)c3ncccc3C2=O)cc1OC | 0.794 µM (active) | 0.394 µM (active) | 2.54 µM (inactive) | 1.15 µM (inactive) | 10.2 µM (inactive) | 1.67 µM (inactive) | 1.79 µM (inactive) | 3.67 µM (inactive) | 5.09 µM (inactive) | 1.71 µM (inactive) | 2.28 µM (inactive) | 2.7 µM (inactive) | 1.38 µM (inactive) | 1.19 µM (inactive) | 3.59 µM (inactive) | 1.82 µM (inactive) | 0.973 µM (active) | 0.426 µM (active) | 5.5 µM (inactive) | 1.42 µM (inactive)
7 | CCOC(=O)c1cccc(/N=N/c2ncc(/C=C/C(=O)OC)[nH]2)c1 | 20.4 µM (inactive) | 14.3 µM (inactive) | 17.3 µM (inactive) | 26 µM (inactive) | 55.7 µM (inactive) | 19.1 µM (inactive) | 18.8 µM (inactive) | 22 µM (inactive) | 29.3 µM (inactive) | 14.5 µM (inactive) | 22 µM (inactive) | 55 µM (inactive) | 21.6 µM (inactive) | 16.2 µM (inactive) | 23.2 µM (inactive) | 20.8 µM (inactive) | 7.03 µM (inactive) | 15.3 µM (inactive) | 27.7 µM (inactive) | 36.1 µM (inactive)
8 | CS/C(=N\C#N)NC1CC(n2cc(C)c(=O)[nH]c2=O)OC1CO (stereo not given) | > 100 µM (inactive) | > 100 µM (inactive) | > 100 µM (inactive) | > 100 µM (inactive) | > 100 µM (inactive) | > 100 µM (inactive) | > 100 µM (inactive) | > 100 µM (inactive) | > 100 µM (inactive) | > 100 µM (inactive) | > 100 µM (inactive) | > 100 µM (inactive) | > 100 µM (inactive) | > 100 µM (inactive) | > 100 µM (inactive) | > 100 µM (inactive) | > 100 µM (inactive) | > 100 µM (inactive) | > 100 µM (inactive) | > 100 µM (inactive)
9 | O=C([O-])C(O)C(O)C(O)C(O)C(=O)O.[K+] (stereo not given) | > 100 µM (inactive) | > 100 µM (inactive) | > 100 µM (inactive) | > 100 µM (inactive) | > 100 µM (inactive) | > 100 µM (inactive) | > 100 µM (inactive) | > 100 µM (inactive) | > 100 µM (inactive) | > 100 µM (inactive) | > 100 µM (inactive) | > 100 µM (inactive) | > 100 µM (inactive) | > 100 µM (inactive) | > 100 µM (inactive) | > 100 µM (inactive) | > 100 µM (inactive) | > 100 µM (inactive) | > 100 µM (inactive) | > 100 µM (inactive)
10 | COc1cc(/C=C2/C(=O)N(C(=O)c3ccccc3O)N=C2C)ccc1O | 0.214 µM (active) | 0.161 µM (active) | 0.352 µM (active) | 0.698 µM (active) | 0.223 µM (active) | 0.658 µM (active) | 18.9 µM (inactive) | 0.123 µM (active) | 0.404 µM (active) | 0.217 µM (active) | 0.596 µM (active) | 6.46 µM (inactive) | 0.514 µM (active) | 0.838 µM (active) | 0.202 µM (active) | 0.0771 µM (active) | 0.719 µM (active) | 0.465 µM (active) | 0.586 µM (active) | 0.701 µM (active)
